In general, IC50 refers to the concentration that inhibits the measured activity by half.

The subject of this assay is nucleoside uptake (3H-Thymidine). The experiment in a line: Nucleoside uptake assay (uptake) using 3H-Thymidine, IC50, cell line as indicated in each table (none given in Table 8). It counts as cell-based. The following applies: 3H-Thymidine uptake; cell line not given. On the procedure:
Nucleoside Uptake Assay (uptake). Nuceloside uptake assays were performed with using 3H-Thymidine as described in Guo et al. (2018) Nat. Chem. 11:254-63. Specific cell lines are indicated in each assay and cultured in complete growth media. Activity is scored according to the IC50 values relative to DMSO control. “Low” indicates an IC50 greater than 600 nM, “Medium” indicates an IC50 between 300 nM and 600 nM “High” indicates an IC50 less than 300 nM. “Rel.Uptake” refers to uptake activity characterization relative to a single concentration assay. “Low” indicates a response greater than 0.6 times the activity relative to DMSO, “Medium” indicates a response between 0.6 and 0.3 times the activity relative to DMSO, “High” indicates a response less than 0.3 times the activity relative to DMSO.

The compound `CCC[C@H]1C(=O)N(C)CCC=CC(=O)OCC(C)(C)C(=O)C(=O)N2CCCC[C@H]2C(=O)O[C@H](CCc2ccc(OC)c(OC)c2)c2cccc(c2)OCC(=O)NCC(=O)N(C)[C@H](Cc2ccccc2)C(=O)N2CCC[C@H]2C(=O)N1C` [Compound 1625] showed an IC50 of 42.3 nM. For `CCC[C@@H]1NC(=O)CCC(=O)Nc2cccc(c2)[C@@H](CCc2ccc(OC)c(OC)c2)OC(=O)[C@@H]2CCCCN2C(=O)C(=O)C(C)(C)COC(=O)/C=C/CCN(C)C(=O)[C@H]([C@@H](C)CC)N(C)C(=O)[C@@H]2CCCN2C(=O)[C@@H](Cc2ccccc2)N(C)C1=O` [Compound 1615] the value was 12.2 nM. For `COc1ccc(CC[C@H]2OC(=O)[C@@H]3CCCCN3C(=O)C(=O)C(C)(C)COC(=O)/C=C/CCN(C)C(=O)[C@H](C(C)C)N(C)C(=O)[C@@H]3CCCN3C(=O)[C@@H](Cc3ccccc3)N(C)C(=O)CNC(=O)COc3cccc2c3)cc1OC` [Compound 1611] the value was 48.9 nM; for `CCCC[C@H]1C(=O)N(C)CC/C=C/C(=O)OCC(C)(C)C(=O)C(=O)N2CCCC[C@H]2C(=O)O[C@H](CCc2ccc(OC)c(OC)c2)c2cccc(c2)OCC(=O)NCC(=O)N(C)[C@H](Cc2ccccc2)C(=O)N2CCC[C@H]2C(=O)N1C` [Compound 1620], 13.9 nM.

For the compound `CCCC[C@H]1C(=O)N(C)CCC=CC(=O)OCC(C)(C)C(=O)C(=O)N2CCCC[C@H]2C(=O)O[C@H](CCc2ccc(OC)c(OC)c2)c2cccc(c2)OCC(=O)N[C@@H](C)C(=O)N(C)[C@H](Cc2ccccc2)C(=O)N2CCC[C@H]2C(=O)N1C` [Compound 1621], the IC50 is 9.76 nM. For the compound `COc1ccc(CC[C@H]2OC(=O)[C@@H]3CCCCN3C(=O)C(=O)C(C)(C)COC(=O)/C=C/CCN(C)C(=O)[C@H](C(C)C)N(C)C(=O)[C@@H]3CCCN3C(=O)[C@@H](Cc3ccccc3)N(C)C(=O)[C@H](C)NC(=O)CCC(=O)Nc3cccc2c3)cc1OC` [Compound 1606], half-maximal inhibition (IC50) was put at 23.7 nM.

Take `CC[C@H](C)[C@H]1C(=O)N(C)CC/C=C/C(=O)OCC(C)(C)C(=O)C(=O)N2CCCC[C@H]2C(=O)O[C@H](CCc2ccc(OC)c(OC)c2)c2cccc(c2)OCC(=O)N[C@@H](C)C(=O)N(C)[C@H](Cc2ccccc2)C(=O)N2CCC[C@H]2C(=O)N1C` [Compound 1617]: it took 34.1 nM to reach half-maximal inhibition (IC50). This IC50 and that of the compound before are within 1.5-fold of each other. For `COc1ccc(CC[C@H]2OC(=O)[C@@H]3CCCCN3C(=O)C(=O)C(C)(C)COC(=O)C=CCCN(C)C(=O)[C@H](CC(C)C)N(C)C(=O)[C@@H]3CCCN3C(=O)[C@@H](Cc3ccccc3)N(C)C(=O)CNC(=O)COc3cccc2c3)cc1OC` [Compound 1622] the value was 28.5 nM; for `COCC[C@@H]1NC(=O)COc2cccc(c2)[C@@H](CCc2ccc(OC)c(OC)c2)OC(=O)[C@@H]2CCCCN2C(=O)C(=O)C(C)(C)COC(=O)/C=C/CCN(C)C(=O)[C@H](C(C)C)N(C)C(=O)[C@@H]2CCCN2C(=O)[C@@H](Cc2ccccc2)N(C)C1=O` [Compound 1613], 59.5 nM; for `CCC[C@@H]1NC(=O)COc2cccc(c2)[C@@H](CCc2ccc(OC)c(OC)c2)OC(=O)[C@@H]2CCCCN2C(=O)C(=O)C(C)(C)COC(=O)/C=C/CCN(C)C(=O)[C@H]([C@@H](C)CC)N(C)C(=O)[C@@H]2CCCN2C(=O)[C@@H](Cc2ccccc2)N(C)C1=O` [Compound 1618], 173 nM.

`CCC[C@@H]1NC(=O)CCC(=O)Nc2cccc(c2)[C@@H](CCc2ccc(OC)c(OC)c2)OC(=O)[C@@H]2CCCCN2C(=O)C(=O)C(C)(C)COC(=O)/C=C/CCN(C)C(=O)[C@H](C(C)C)N(C)C(=O)[C@@H]2CCCN2C(=O)[C@@H](Cc2ccccc2)N(C)C1=O` [Compound 1607] came in with an IC50 of 18 nM. For `COc1ccc(CC[C@H]2OC(=O)[C@@H]3CCCCN3C(=O)C(=O)C(C)(C)COC(=O)C=CCCN(C)C(=O)[C@H](CC(C)C)N(C)C(=O)[C@@H]3CCCN3C(=O)[C@@H](Cc3ccccc3)N(C)C(=O)[C@H](C)NC(=O)CCC(=O)Nc3cccc2c3)cc1OC` [Compound 1624] the value was 31.4 nM.

Values taken from patent US11066416B2, “Rapafucin derivative compounds and methods of use thereof” (The Johns Hopkins University, priority 2016, dated 2021).
